Peptide text beside a SMILES is read from it.
Tests used:
Assay type in all cases: physicochemical
[1] = Heat stability: residual rate after heat sterilization in an autoclave; conditions: aqueous 10 mM solution, pH 6.5, autoclave 120° C.
Protocol: Each of aqueous 10 mM solutions of β-alanyl-L-glutamine, L-alanyl-L-glutamine (control) and L-glutamine (control) adjusted at pH 6.5 with sodium hydroxide was heated in an autoclave at 120° C. for a period of 20 minutes or 120 minutes. The residual rate of each of the compounds after heating was determined.

[2] = Solubility: maximum amount dissolved in 1 liter of water; conditions: 25° C.
Protocol: Each of β-alanyl-L-glutamine, L-alanyl-L-glutamine (control) and L-glutamine (control) was dissolved into 1 liter of water (25° C.). Each of their maximum amounts dissolved in the water was determined.

[3] = Heat stability: residual rate after heat sterilization in an autoclave; conditions: aqueous 10 mM solution, pH 6.5, autoclave 120° C., 20 minutes

SMILES	Residual Rate after Heat Sterilization 20 min. [1]	Residual Rate after Heat Sterilization 20 min. ([1]; listed as L-alanyl-L-glutamine)	Residual Rate after Heat Sterilization 120 min. [1]	Amount Dissolved in 1 liter of Water [2]	Residual Rate after Heat Sterilization 120 min. ([1]; listed as L-glutamine)	Share decomposed after heating [3]	Residual Rate after Heat Sterilization 20 min. ([1]; listed as β-alanyl-L-glutamine)	Amount Dissolved in 1 liter of Water ([2]; listed as β-alanyl-L-glutamine)
C[C@H](N)C(=O)N[C@@H](CCC(N)=O)C(=O)O [L-Alanyl-L-glutamine, L-alanyl-L-glutamine] (H-Ala-Gln-OH)	98%	partly decomposed	91%	599 g				
NC(=O)CC[C@H](N)C(=O)O [L-Glutamine, L-glutamine]	9%		0%	43 g	decomposed completely	about 90%		
NCCC(=O)N[C@@H](CCC(N)=O)C(=O)O [β-Alanyl-L-glutamine, β-alanyl-L-glutamine]	100%		99%	952 g			remained entirely without being decomposed	highest solubility
